Source: patent US10292949B2, “Pharmaceutical composition comprising rimeporide for treating diseases associated with insulin resistance and β-cell dysfunction” (Merck Patent GmbH, priority 2008, dated 2019)

Tests used:
[1] = Pharmacological Study Report I: body weight of ZF (fa/fa) rats during 4 weeks of treatment; type: in vivo, rat; conditions: age 8-12 weeks, Compound A 150 mg/kg gavage twice daily, Compound B 40 mg/kg/day in chow
Description: Obese, insulin resistant ZF (fa/fa) rats, which are treated from the age of 8-12 weeks, were used as IR model. Rats were housed with a 12-h light/dark cycle and free access to food and water unless otherwise noted. Studies were approved by the Institutional Animal Care and Use Committee. There were a total of 18 animals in the study (8 week-old males, provided by Charles River). Animals were randomized into 3 groups (vehicle group, Compound A group, Compound B group, n=6 per group) based on random glucose level at the beginning of the study: • Group 1: ZF rats (fa/fa) (n=6), compound A (150 mg/kg via gavage) • Group 2: ZF rats (fa/fa) (n=6), compound B (40 mg/kg/day as admixture to the chow) • Group 3: ZF rats (fa/fa) (n=6), vehicle treatment (control chow, vehicle gavage)
Group 1 and 3 animals were treated with compound A or vehicle (water) for 4 weeks (from age 8-12 weeks) via oral gavage, twice daily. Chow containing compound B was fed to Group 2 ad lib. Group 1 and Group 3 were fed with chow without compound B ad lib.

[2] = tested on: obese Zucker fa/fa rats; test: Pharmacological Study Report II: HbA1c levels; type: in vivo, rat; conditions: Mean ± SD; for Base line HbA1c: baseline; for Change in HbA1c: change over the 4 week treatment period; for Week 4 HbA1c: week 4 of treatment
Description: Thirty-six obese Zucker fa/fa and six lean Zucker fa/? male rats obtained from Charles River, were housed under normal vivarium conditions on a 12 hour light/dark cycle. The rats were kept two to a cage with food and water available ad lib, except during the weekly, 4 hour fasts. Water continued to be available during these fasts.
Compound A corresponds to Cariporide. Compound B corresponds to 2-Methyl-4,5-di-(methylsulfonyl)-benzoyl-guanidine hydrochloride hydrate. Compounds A and B were supplied in powder form by Merck Serono. Drugs were incorporated into a pelleted diet (LabDiet, 5001) by Research Diets, Inc (New Brunswick, N.J.) at concentrations of 0.44 g/kg or 0.88 g/kg of diet to yield approximate doses of 40 or 80 mg/kg. The concentration was calculated based on the assumption that a 300 g rat would eat about 30 g/d of chow. The same chow, but without drug, was fed to rats of both the lean and fa/fa control group animals.
One week prior to the start of the study, all rats were weighed. After a 4 hour fast, a blood sample was obtained for the determination of blood glucose, insulin, and glycosylated hemoglobin levels (HbA1c). Animals were then sorted on the basis of these parameters into the groups listed below. Rats were eight weeks of age at the onset of treatment.
• 1. ZF rats (fa/fa) (n=6) chow without drug • 2. ZF rats (fa/fa) (n=6) compound A (40 mg/kg/day) • 3. ZF rats (fa/fa) (n=6) compound A (80 mg/kg/day) • 4. ZF rats (fa/fa) (n=6) compound B (40 mg/kg/day) • 5. ZF rats (fa/fa) (n=6) compound B (80 mg/kg/day) • 6. lean Zucker rats (fa/?) (n=6) chow without drug Dosing Regime
Treatment appropriate chow was continuously available for 4 weeks except during scheduled 4 h fasts conducted once per week.
HbA1c level were determined using a DCA 2000 analyzer (Bayer Healthcare LLC, Elkhart Ind.) prior to beginning the study and again at the end of the 4th week treatment period.

## CC(C)c1ccc(C(=O)NC(=N)N)cc1S(C)(=O)=O [Compound A, Cariporide]
[1]
  Body weight, difference among vehicle- and compound-treated groups: no significant differences
[2]; 40 mg/kg group
  Base line HbA1c: 4.0 ± 0.5%
[2]; 80 mg/kg group
  Base line HbA1c: 3.9 ± 0.4%
[2]; 40 mg/kg
  Change in HbA1c: 0.4 ± 0.6%
[2]; 80 mg/kg
  Change in HbA1c: 0.4 ± 0.9%
[2]; 40 mg/kg in chow
  Week 4 HbA1c: 4.4 ± 0.2%
[2]; 80 mg/kg in chow
  Week 4 HbA1c: 4.4 ± 0.52%
